The values below come from ChEMBL document CHEMBL1156984, “Synthesis and biological evaluation of piperazinyl heterocyclic antagonists of the gonadotropin releasing hormone (GnRH) receptor” (Bioorg Med Chem Lett, 2010).

SMILES strings stand for the structures. pIC50: −log10 of the molar value. ≈ marks a conversion by molar mass, not a printed value. Some results are limits rather than exact numbers.

Data set [1] addresses T1, Gonadotropin-releasing hormone receptor (Homo sapiens, UniProt P30968).
T1 sequence (P30968 whole entry): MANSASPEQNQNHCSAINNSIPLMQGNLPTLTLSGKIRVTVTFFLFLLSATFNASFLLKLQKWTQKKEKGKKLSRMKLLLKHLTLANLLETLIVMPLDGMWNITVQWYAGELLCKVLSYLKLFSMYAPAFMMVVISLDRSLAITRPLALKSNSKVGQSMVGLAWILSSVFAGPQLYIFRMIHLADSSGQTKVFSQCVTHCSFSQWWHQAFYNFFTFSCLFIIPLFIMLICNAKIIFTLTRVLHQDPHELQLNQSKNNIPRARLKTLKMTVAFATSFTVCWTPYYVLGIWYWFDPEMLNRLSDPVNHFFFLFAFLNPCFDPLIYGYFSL
In words: Displacement of [125I]D-Trp6-GnRH from human recombinant GNRH receptor by scintillation counting. (In general: In a radioligand displacement assay an active substance lowers the binding of a labelled ligand.)

In data set [2] the target is T2, Gonadotropin-releasing hormone receptor (Rattus norvegicus, UniProt P30969).
T2 sequence (P30969 whole entry): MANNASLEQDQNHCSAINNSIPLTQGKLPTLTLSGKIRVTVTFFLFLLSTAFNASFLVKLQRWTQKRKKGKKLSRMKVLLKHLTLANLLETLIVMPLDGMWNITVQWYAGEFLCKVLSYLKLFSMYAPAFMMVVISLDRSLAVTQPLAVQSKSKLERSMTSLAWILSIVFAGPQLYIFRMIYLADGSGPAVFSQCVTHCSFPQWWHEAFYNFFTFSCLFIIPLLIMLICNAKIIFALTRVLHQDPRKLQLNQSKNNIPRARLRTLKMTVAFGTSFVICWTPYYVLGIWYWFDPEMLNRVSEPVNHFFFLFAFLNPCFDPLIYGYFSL
As to the kind of experiment: Displacement of [125I]D-Trp6-GnRH from rat recombinant GNRH receptor by scintillation counting.

Data set [3] can be described thus: Cmax in orchidectomized Sprague-Dawley rat at 1 mg/kg, iv. Type of data set: ADME, organism-based. Set-up: dose 1 mg/kg, route intravenous. As to conditions: male, in vivo.
Data set [4] can be described thus: Half life in orchidectomized Sprague-Dawley rat at 30 mg/kg, po. The class given is ADME, organism-based. Also noted: dose 30 mg/kg, route oral. Particulars: male, in vivo.
The nature of data set [5]: AUC (0 to infinity) in orchidectomized Sprague-Dawley rat at 1 mg/kg, iv. The class given is ADME, organism-based. As to conditions: male, plasma. Set-up: time infinity, dose 1 mg/kg, route intravenous.
Data set [6] can be described thus: AUC (0 to infinity) in orchidectomized Sprague-Dawley rat at 30 mg/kg, po. Particulars: male, plasma. Type of data set: ADME, organism-based. Also noted: time infinity, dose 30 mg/kg, route oral.
The nature of data set [7]: Solubility at pH 7.4. Type of data set: physicochemical. Particulars: buffer.
Data set [8] can be described thus: Cmax in orchidectomized Sprague-Dawley rat at 30 mg/kg, po. Type of data set: ADME, organism-based. Also noted: dose 30 mg/kg, route oral. As to conditions: male, in vivo.
For data set [9], the target named is T2, Gonadotropin-releasing hormone receptor. In words: Antagonist activity at GNRH receptor in rat pituitary cells assessed as inhibition of D-Trp6-GnRH-induced LH accumulation after 3 hrs by RIA. The class given is functional, cell-based, Pituitary gland cell.
Data set [10] can be described thus: Half life in orchidectomized Sprague-Dawley rat at 1 mg/kg, iv. Set-up: dose 1 mg/kg, route intravenous. The class given is ADME, organism-based. As to conditions: male, in vivo.
Data set [11] can be described thus: Permeability by PAMPA method. Type of data set: ADME. As to conditions: read-out: permeability.
The target of data set [12] is T1, Gonadotropin-releasing hormone receptor. As to the kind of experiment: Antagonist activity at human recombinant GNRH receptor assessed as inhibition of D-Trp6-GNRH-induced IP accumulation after 1 hr by rapid filtration assay. Type of data set: functional.
The next data set deals with Cytochrome P450 2D6 (Homo sapiens, UniProt P10635). As to the kind of experiment: Inhibition of CYP2D6. Type of data set: ADME.
A short description of data set [13]: Half life in rat liver microsomes. The class given is ADME, Microsome. For orientation: Liver microsomes are a subcellular fraction often used to study metabolism.
For another data set, the target named is Cytochrome P450 2C9 (Homo sapiens, UniProt P11712). In words: Inhibition of CYP2C9. Type of data set: ADME.
The next data set has as its target Cytochrome P450 3A4 (Homo sapiens, UniProt P08684). As to the kind of experiment: Inhibition of CYP3A4. Type of data set: ADME.
Data set [14] concerns the target T3, Gonadotropin-releasing hormone receptor (Homo sapiens) (UniProt P30968).
T3 sequence (whole entry): T1 sequence (P30968 whole entry)
As to the kind of experiment: Displacement of [125I]D-Trp6-GnRH from human recombinant GNRH receptor at 500 nM by scintillation counting.

Data set [15] can be described thus: Volume of distribution at steady state in orchidectomized Sprague-Dawley rat at 3 mg/kg, iv. The class given is ADME, organism-based. Also noted: dose 3 mg/kg, route intravenous. As to conditions: male, in vivo, read-out: Vdss.
Data set [16] can be described thus: Clearance in orchidectomized Sprague-Dawley rat at 3 mg/kg, iv. Set-up: dose 3 mg/kg, route intravenous. Type of data set: ADME, organism-based. Particulars: male, in vivo.
The nature of data set [17]: Cmax in orchidectomized Sprague-Dawley rat at 3 mg/kg, iv. Type of data set: ADME, organism-based. Set-up: dose 3 mg/kg, route intravenous. As to conditions: male, in vivo.
The nature of data set [18]: Tmax in orchidectomized Sprague-Dawley rat at 30 mg/kg, po. Particulars: male, in vivo. Set-up: dose 30 mg/kg, route oral. The class given is ADME, organism-based.
Data set [19] is described as follows: Oral bioavailability in orchidectomized Sprague-Dawley rat at 30 mg/kg. As to conditions: male, in vivo. The class given is ADME, organism-based.
Data set [20] in a line: Half life in orchidectomized Sprague-Dawley rat at 3 mg/kg, iv. The class given is ADME, organism-based. Also noted: dose 3 mg/kg, route intravenous. Particulars: male, in vivo.
Data set [21] is described as follows: AUC (0 to infinity) in orchidectomized Sprague-Dawley rat at 3 mg/kg, iv. As to conditions: male, plasma. Also noted: time infinity, dose 3 mg/kg, route intravenous. Type of data set: ADME, organism-based.

Cytochrome P450 3A4, sequence (P08684 whole entry): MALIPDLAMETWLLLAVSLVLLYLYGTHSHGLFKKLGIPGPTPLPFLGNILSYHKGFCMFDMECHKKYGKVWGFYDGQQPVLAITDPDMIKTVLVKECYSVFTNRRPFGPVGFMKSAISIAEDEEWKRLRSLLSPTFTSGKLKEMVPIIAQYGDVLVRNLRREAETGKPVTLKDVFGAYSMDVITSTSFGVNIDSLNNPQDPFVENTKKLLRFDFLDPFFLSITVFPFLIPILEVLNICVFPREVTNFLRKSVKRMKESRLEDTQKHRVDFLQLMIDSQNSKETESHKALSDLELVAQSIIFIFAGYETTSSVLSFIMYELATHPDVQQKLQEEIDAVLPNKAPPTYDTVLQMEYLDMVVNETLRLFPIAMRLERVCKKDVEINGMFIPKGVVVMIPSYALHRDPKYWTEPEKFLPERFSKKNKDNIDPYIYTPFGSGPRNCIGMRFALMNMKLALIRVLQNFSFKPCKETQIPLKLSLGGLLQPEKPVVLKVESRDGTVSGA
Cytochrome P450 2C9, sequence (P11712 whole entry): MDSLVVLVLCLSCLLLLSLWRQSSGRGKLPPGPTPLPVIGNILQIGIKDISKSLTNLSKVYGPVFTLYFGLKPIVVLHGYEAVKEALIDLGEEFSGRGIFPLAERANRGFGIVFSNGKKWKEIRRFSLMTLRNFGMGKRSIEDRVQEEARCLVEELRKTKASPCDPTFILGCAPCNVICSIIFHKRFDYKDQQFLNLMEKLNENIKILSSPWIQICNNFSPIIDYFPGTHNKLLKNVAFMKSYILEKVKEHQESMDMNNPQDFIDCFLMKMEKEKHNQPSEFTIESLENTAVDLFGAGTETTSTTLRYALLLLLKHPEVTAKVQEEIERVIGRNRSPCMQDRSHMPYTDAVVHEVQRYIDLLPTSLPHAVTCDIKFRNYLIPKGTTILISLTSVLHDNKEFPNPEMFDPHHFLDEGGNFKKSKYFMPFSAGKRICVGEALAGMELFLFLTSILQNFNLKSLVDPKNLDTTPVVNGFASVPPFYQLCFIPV
Cytochrome P450 2D6, sequence (P10635 whole entry): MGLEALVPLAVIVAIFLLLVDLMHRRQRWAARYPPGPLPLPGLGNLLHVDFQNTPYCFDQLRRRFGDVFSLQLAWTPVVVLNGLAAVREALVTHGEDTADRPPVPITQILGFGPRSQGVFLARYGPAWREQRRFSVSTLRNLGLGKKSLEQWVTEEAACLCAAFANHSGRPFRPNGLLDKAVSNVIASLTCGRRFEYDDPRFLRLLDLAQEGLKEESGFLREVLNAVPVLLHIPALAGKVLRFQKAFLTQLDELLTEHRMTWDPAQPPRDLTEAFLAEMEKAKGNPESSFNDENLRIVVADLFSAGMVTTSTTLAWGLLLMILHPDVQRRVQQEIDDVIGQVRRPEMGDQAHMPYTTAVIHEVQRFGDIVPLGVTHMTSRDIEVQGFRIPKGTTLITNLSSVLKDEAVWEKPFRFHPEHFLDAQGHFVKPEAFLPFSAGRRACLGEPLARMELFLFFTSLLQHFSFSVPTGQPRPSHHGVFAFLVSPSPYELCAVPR

Take `CCc1nc(CN2CCN(c3cncc4[nH]c(-c5ccc(C(C)(C)C)cc5)nc34)CC2)c(C)[nH]1`: the pIC50 in data set [1] was 7.24; in [2], 6.54.
Regarding `CCn1cnc(CN2CCN(c3cccc4[nH]c(-c5ccc(C(C)(C)C)cc5)nc34)CC2)c1C`, the Cmax in [3] amounted to 458 ng/mL; in data set [8], 533 ng/mL. Further, the figures for the half-life in data set [4] and in data set [10] were 132 min and 24 min, respectively. In addition, the pIC50 in data set [1] was 8.24; in [9], 6.70; in [12] it was 7.82. The values for the AUC(0-inf) in data set [5] and in data set [6] were 124 ng·h/mL and 3440 ng·h/mL, respectively. The compound also came in with a solubility in data set [7] of 3 µg/mL (≈ 6.57 µM). For the same compound, the Papp in [11] was found to be 2.7 ×10⁻⁶ cm/s.
In the case of `CCn1cc(CN2CCN(c3cccn4cc(-c5ccc(C(C)(C)C)cc5)nc34)CC2)c(=O)[nH]c1=O`, the results for the “inhibition (INH)” value on Cytochrome P450 2D6, on Cytochrome P450 2C9 and at Cytochrome P450 3A4 were 0%, 0% and 54%, respectively. In [13], this compound had a half-life of 6 min. Besides, the pIC50 in data set [1] was 8.64; in data set [2], 8.24; in [9] it was 6.59; in [12] it was 8.30. In data set [7], this compound returned a solubility of 6 µg/mL (≈ 12.3 µM). For the same compound, the Papp in [11] is 1.2 ×10⁻⁶ cm/s.
For the compound `CCc1nc(CN2CCN(c3cccc4nc(-c5ccc(C(C)(C)C)cc5)sc34)CC2)c(C)[nH]1`, the pIC50 in [1] is below 5.00.
With `CC(C)(C)c1ccc(-c2cn3cccc(N4CCN(Cc5ccc6nccnc6c5)CC4)c3n2)cc1`, the pIC50 in [1] is 7.33; in data set [2], 7.09; in data set [9] it was 5.47; in [12] it was 7.05.
Take `CC(C)(C)c1ccc(-c2nc3c(N4CCN(Cc5ccc6nccnc6c5)CC4)cccc3[nH]2)cc1`: the pIC50 is 7.14 in data set [2] and 6.44 in [9].
With `CCc1nc(CN2CCN(c3cccc4sc(-c5ccc(C(C)(C)C)cc5)nc34)CC2)c(C)[nH]1`, the inhibition in data set [14] turned out to be 70%.
Regarding `CCc1nc(CN2CCN(c3cccc4oc(-c5ccc(C(C)(C)C)cc5)nc34)CC2)c(C)[nH]1`, the inhibition in data set [14] was 61%.
In the case of `CC(C)(C)c1ccc(-c2cn3cccc(N4CCN(Cc5c[nH]c(=O)[nH]c5=O)CC4)c3n2)cc1`, the pIC50 was 8.37 in [1], 7.02 in [2], 5.36 in data set [9] and 7.70 in [12].
As to `CCc1nc(CN2CCN(c3cccc4nc(-c5ccc(C(C)(C)C)cc5)oc34)CC2)c(C)[nH]1`, the pIC50 in data set [1] is below 5.00.
With `CCn1cnc(CN2CCN(c3cccn4cc(-c5ccc(C(C)(C)C)cc5)nc34)CC2)c1C`, the Vd in [15] amounted to 3.5 L/kg. Moreover, the half-life in data set [4] was 66 min; in data set [13], 11 min; in [20], 84 min. Moreover, the “inhibition (INH)” value against Cytochrome P450 2D6 worked out at 9%; on Cytochrome P450 2C9 it was 10%; against Cytochrome P450 3A4, 54%. The pIC50 in [1] is 8.17; in data set [2] it was 7.92; in [9] it was 6.38; in data set [12] it was 7.39. Further, the AUC(0-inf) in [6] was 1950 ng·h/mL; in data set [21], 685 ng·h/mL. The clearance in data set [16] was determined as 75.1 mL/min/kg. In addition, the solubility in [7] is 9 µg/mL (≈ 19.7 µM). In addition, the figures for the Cmax in data set [17] and in data set [8] were 1760 ng/mL and 788 ng/mL, respectively. Further, in [18], the Tmax stood at 48 min. Also, in data set [19], the bioavailability turned out to be 28%. Further, in [11], the Papp turned out to be 1.1 ×10⁻⁶ cm/s.
`CCc1nc(C)c(CN2CCN(c3cccc4[nH]c(-c5ccc(C(C)(C)C)cc5)nc34)CC2)[nH]1`: the pIC50 in data set [1] was 8.00; in data set [2], 7.47; in [9], 6.80; in [12], 7.74. In data set [7], this compound yielded a solubility of 20 µg/mL (≈ 43.8 µM).
For `CCc1nc(CN2CCN(c3cccn4cc(-c5ccc(C(C)(C)C)cc5)nc34)CC2)c(C)[nH]1`, the “inhibition (INH)” value against Cytochrome P450 2D6 is given as 8%; against Cytochrome P450 2C9, 6%; against Cytochrome P450 3A4 it was 78%. Moreover, the half-life in data set [13] came to 21 min. The negative logarithm of the IC50 (pIC50) was 8.01 in data set [1], 7.43 in data set [2], 6.04 in data set [9] and 7.22 in data set [12]. This compound also registered a solubility in data set [7] of 3 µg/mL (≈ 6.57 µM). For the same compound, the Papp in data set [11] came to 0.2 ×10⁻⁶ cm/s.
Turning to `CCc1nc(CN2CCN(c3cccc4nc(-c5ccc(C(C)(C)C)cc5)cn34)CC2)c(C)[nH]1`, in [1], the pIC50 is below 5.00.
For the compound `CC(C)(C)c1ccc(-c2cn3cccc(N4CCN(Cc5cnc6ccccc6n5)CC4)c3n2)cc1`, the pIC50 was 7.36 in [1], 7.54 in [2], 5.82 in data set [9] and 7.41 in data set [12].
`CCc1nc(CN2CCN(c3ccnc4[nH]c(-c5ccc(C(C)(C)C)cc5)nc34)CC2)c(C)[nH]1`: the inhibition in data set [14] was determined as 32%.

One may read the pIC50 as −log10 of the IC50, conventionally taken in molar units. As a reminder, the Cmax is the maximum level reached in the sampled fluid or tissue. For orientation: half-life means the time in which the quantity being followed falls by half. A higher half-life goes with slow loss. A word on the AUC(0-inf): it is the area under the concentration-time curve extrapolated to infinity. The low end stands for low exposure, the high end for high exposure. As a reminder, the solubility is how much of the substance goes into solution per volume. A lower solubility goes with a poorly soluble substance. The inhibition is the drop in the measured response relative to a control, in per cent. The term clearance denotes a measure of how efficiently the substance is removed, as volume per time. Lower therefore signals inefficient removal. As a reminder, the Tmax is the time at which the peak concentration occurs. As a reminder, the bioavailability is the share of a dose that reaches the circulation, judged against a reference dose that is usually intravenous. High values mean much systemic uptake, low ones little systemic uptake.
